Legend:
Assay in all cases: isobutyraldehyde reduction kinetics (A340, initial rates)
Type in all cases: biochemical
[1] = tested on: Achromobacter xylosoxidans SadB (SadB), SEQ ID NO: 26
Description: (§1) This example describes preparation of ADH-gene constructs for over-expression/purification and measurement of enzyme activities using a time-course assay. Horse-liver ADH (HLADH; A-6128) was purchased from Sigma. Achromobacter xylosoxidans SadB (SadB), Saccharomyces cerevisiae ADH6 (ScADH6) and ADH7 (ScADH7), Entamoeba histolytica ADH1 (EhADH1), Bos Taurus Aldehyde Reductase (BtARD), Beijerinckia indica subsp. Indica ATCC 9039 (BiADH), Clostridium beijerinckii ADH (CbADH), Rana perezi ADH8 (RpADH8), Rattus norvegicus ADH1 (RnADH1), Thermus sp. ATN1 ADH (TADH), Phenylobacterium zucineum HLK1 ADH (PzADH), Methylocella silvestris BL2 ADH (MsADH), Acinetobacter baumannii AYE ADH (AbADH), Geobacillus sp. WCH70 ADH (GbADH), Vanderwaltozyma polyspora DSM 70294 ADH (VpADH), Mucor circinelloides ADH (McADH), and Rhodococcus erythropolis PR4ADH (ReADH) were the candidates for which subclones were prepared for protein expression and purification.
(§2) As a routine practice, the crude extracts and purified proteins were assayed for butanol oxidation activity, in order to ensure that the recombinant proteins were active throughout the purification process. […] Alcohol oxidation activities were carried out in 50 mM sodium phosphate buffer at pH 8.8 and aldehyde reduction reactions were assayed in 190 mM potassium phosphate buffer at pH 7.0. Depending on the nature of reaction being carried out, the enzyme and cofactor stocks were diluted in the reaction buffers at the respective pHs. Either buffer or cell extract prepared from the proprietary E. coli strain (with no ADH plasmid) was used as the negative control for assays with purified protein and cell-free extracts, respectively.
(§3) Kinetic constants of the ADH enzymes were calculated and compared to identify those candidate ADH enzymes with the most desirable properties for the conversion of isobutyraldehyde to isobutanol in the last step of the engineered pathway for isobutanol production. The assays for determining the kinetic constants were carried out using initial rates from the assays described above. […] The concentration of a given enzyme was such that it was conducive for the measurement of initial velocities over a 1-min time course. For each enzyme, Michaelis-Menten plots were generated with a broad range of substrate concentrations. Rough estimates of KM were obtained, based on which the assays were redesigned so as to use substrate concentrations in the range 0.5 to 10 times the KM value, to be able to obtain the appropriate kinetic constants. […] Reactions with isobutanol substrate were performed at 30° C. in 50 mM Sodium phosphate buffer, pH 8.8, containing 7.5 mM NAD. The Enzyme kinetics module (Version 1.3) of SigmaPlot 11 (Systat Software, Inc.) was used to fit data to Michaelis-Menten equations and calculate the kinetic constants. The kcat/KM is derived from the individual numbers of kcat and KM and not an experimentally determined value.
(§4) For those enzymes marked with an asterisk in Table 7, at least 3 assays were performed with separate preparations of the enzyme. All other numbers are values from either one assay or are averages from 2 assays performed with the same enzyme sample.

[2] = target: T1, Saccharomyces cerevisiae ADH6 (ScADH6), SEQ ID NO: 22 (Saccharomyces cerevisiae, UniProt Q04894); settings: relative to SadB
T1 sequence (Q04894 1-360): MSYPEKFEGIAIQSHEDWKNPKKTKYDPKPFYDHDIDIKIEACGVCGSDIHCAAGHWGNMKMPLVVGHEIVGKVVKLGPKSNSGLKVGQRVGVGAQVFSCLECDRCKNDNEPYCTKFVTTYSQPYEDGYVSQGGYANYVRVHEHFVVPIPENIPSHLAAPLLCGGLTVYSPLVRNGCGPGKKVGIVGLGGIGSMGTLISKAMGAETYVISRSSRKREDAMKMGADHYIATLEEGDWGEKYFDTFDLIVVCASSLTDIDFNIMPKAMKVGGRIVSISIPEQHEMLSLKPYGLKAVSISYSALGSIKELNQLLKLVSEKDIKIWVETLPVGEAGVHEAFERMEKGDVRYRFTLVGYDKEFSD
Description: as §1, §2, §3, §4

[3] = target: T2, Saccharomyces cerevisiae ADH7 (ScADH7), SEQ ID NO: 23 (Saccharomyces cerevisiae, UniProt P25377)
T2 sequence (P25377 1-361): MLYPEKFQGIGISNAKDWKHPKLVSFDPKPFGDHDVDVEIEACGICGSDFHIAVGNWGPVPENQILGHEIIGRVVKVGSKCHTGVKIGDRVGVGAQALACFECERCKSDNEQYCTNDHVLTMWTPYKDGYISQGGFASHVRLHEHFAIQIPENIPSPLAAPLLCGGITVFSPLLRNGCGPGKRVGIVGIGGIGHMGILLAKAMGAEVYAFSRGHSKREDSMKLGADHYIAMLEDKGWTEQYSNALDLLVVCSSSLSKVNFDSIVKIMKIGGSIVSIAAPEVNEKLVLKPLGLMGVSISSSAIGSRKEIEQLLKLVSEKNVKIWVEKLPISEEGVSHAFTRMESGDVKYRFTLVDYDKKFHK
Description: as §1, §2, §3, §4

[4] = target: T3, horse liver ADH (HLADH), SEQ ID NO: 21 (Equus caballus, UniProt P00327); settings: relative to SadB
T3 construct: purchased Sigma A-6128
T3 sequence (P00327 whole entry): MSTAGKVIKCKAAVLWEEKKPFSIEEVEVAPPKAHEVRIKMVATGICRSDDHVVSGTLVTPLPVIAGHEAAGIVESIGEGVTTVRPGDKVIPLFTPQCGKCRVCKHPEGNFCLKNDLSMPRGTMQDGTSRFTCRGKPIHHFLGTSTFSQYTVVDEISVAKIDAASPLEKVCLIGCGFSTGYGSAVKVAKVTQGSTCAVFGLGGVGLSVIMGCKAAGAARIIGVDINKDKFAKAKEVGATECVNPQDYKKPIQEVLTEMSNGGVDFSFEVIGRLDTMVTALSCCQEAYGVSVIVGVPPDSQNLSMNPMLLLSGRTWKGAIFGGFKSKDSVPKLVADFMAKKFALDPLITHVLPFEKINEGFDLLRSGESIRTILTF
Description: as §1, §2, §3, §4

Compound	Km ([1]; 30° C., pH 7.0, 200 μM NADH, read-out: KM (Isobutanal))	kcat ([1]; isobutyraldehyde reduction, 30° C., pH 7.0, 200 μM NADH)	KM as a percentage of the same parameter for SadB ([1]; reference (SadB itself))	kcat as a percentage of the same parameter for SadB ([1]; reference (SadB itself))	kcat/KM as a percentage of the same parameter for SadB ([1]; reference (SadB itself))	KM as a percentage of the same parameter for SadB [2]	kcat as a percentage of the same parameter for SadB [2]	kcat/KM as a percentage of the same parameter for SadB [2]	KM as a percentage of the same parameter for SadB ([3]; relative to SadB)	kcat as a percentage of the same parameter for SadB ([3]; relative to SadB)	kcat/KM as a percentage of the same parameter for SadB ([3]; relative to SadB)	KM as a percentage of the same parameter for SadB [4]	kcat as a percentage of the same parameter for SadB [4]	kcat/KM as a percentage of the same parameter for SadB [4]	KI as a percentage of the same parameter for SadB ([1]; reference (SadB itself))	KI as a percentage of the same parameter for SadB [2]	Ki ([3]; read-out: KI (Isobutanol))	KI as a percentage of the same parameter for SadB ([3]; relative to SadB)	KI as a percentage of the same parameter for SadB [4]
CC(C)C=O [isobutyraldehyde]	1000 µM	109 s⁻¹	100%	100%	100%	60%	43%	77%	30%	33%	114%	10%	7%	78%	–	–	–	–	–
CC(C)CO [isobutanol, 2-methylpropan-1-ol]	–	–	–	–	–	–	–	–	–	–	–	–	–	–	100%	650%	88 mM	49%	1%
